Results taken from patent US5393869A, “Parathyroid hormone derivatives” (Takeda Chemical Industries, Ltd., priority 1990, dated 1995).

Target: T1, PTH receptor (Mus musculus, UniProt P41593)
T1 construct: a mouse cranial bone-derived osteoblast-like cell strain, MC3T3-EI cells, cultivated on a 96-well multiplate; endogenous in cells; host or cells: MC3T3-E1 mouse osteoblast-like cells
T1 sequence (P41593 27-591): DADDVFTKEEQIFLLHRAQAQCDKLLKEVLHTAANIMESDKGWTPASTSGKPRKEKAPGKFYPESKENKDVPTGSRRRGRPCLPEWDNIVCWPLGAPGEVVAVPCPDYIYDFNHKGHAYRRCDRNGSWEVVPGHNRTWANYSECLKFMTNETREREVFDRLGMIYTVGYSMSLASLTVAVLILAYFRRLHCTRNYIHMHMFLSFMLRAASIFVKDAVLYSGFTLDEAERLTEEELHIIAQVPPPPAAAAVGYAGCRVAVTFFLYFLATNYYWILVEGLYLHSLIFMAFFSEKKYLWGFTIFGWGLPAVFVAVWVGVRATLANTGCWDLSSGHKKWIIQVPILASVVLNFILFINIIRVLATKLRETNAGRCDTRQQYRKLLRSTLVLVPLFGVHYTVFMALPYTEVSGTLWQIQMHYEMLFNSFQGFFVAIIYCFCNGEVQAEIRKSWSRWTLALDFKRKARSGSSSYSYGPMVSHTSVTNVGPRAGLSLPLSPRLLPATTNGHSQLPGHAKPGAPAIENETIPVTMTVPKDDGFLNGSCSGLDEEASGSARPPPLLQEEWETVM
Test: cAMP production by PTH (1-34) analogues in MC3T3-EI osteoblast-like cells
Format: cell-based
Settings: cAMP production, 0.01-100 nM analogue, room temperature 30 minutes, hPTH(1-34) = 1.00
Method: The biological activity of the peptide analogues was evaluated by a modified version of the method reported by Shigeno et al. in The Journal of Biological Chemistry 263, 18369-18377 (1988). A culture solution (Hank's solution, containing 20 mM N-2-hydroxyethylpiperazine-N'-2-ethanesulfonic acid (HEPES), 0.1% bovine serum albumin and 0.5 mM isobutylmethyl-xanthine) containing 0.01, 0.1, 1, 10 or 100 nM analogue was added in an amount of 100 μto a mouse cranial bone-derived osteoblast-like cell strain, MC3T3-EI cells, cultivated on a 96-well multiplate (Nunclon, Nunc), followed by reaction at room temperature for 30 minutes. After addition of 100 μof 0.2N hydrochloric acid, the mixture was immersed in boiling water for 2.5 minutes, and cyclic adenosine monophosphate (cAMP) produced by a PTH receptor was extracted from the cells. The total cAMP in the culture solution and the cells was assayed using a commercial radioimmunoassay kit (cyclic AMP [^125 I] kit "Du Pont-Daiichi", Daiichi Kagaku Yakuhin).

Row | SMILES | Biological Activity (Represented by Relative Activity to hPTH(1-34))
1 | CC[C@H](C)[C@H](NC(=O)[C@H](CCC(=O)O)NC(=O)[C@H](CO)NC(=O)[C@@H](NC(=O)[C@@H](N)CO)C(C)C)C(=O)N[C@@H](CCC(N)=O)C(=O)N[C@@H](CC(C)C)C(=O)N[C@@H](CCSC)C(=O)N[C@@H](Cc1c[nH]cn1)C(=O)N[C@@H](CC(N)=O)C(=O)N[C@@H](CC(C)C)C(=O)NCC(=O)N[C@@H](CCCCN)C(=O)N[C@@H](Cc1c[nH]cn1)C(=O)N[C@@H](CC(C)C)C(=O)N[C@@H](CC(N)=O)C(=O)N[C@@H](CO)C(=O)N[C@@H](CCSC)C(=O)N[C@@H](CCC(=O)O)C(=O)N[C@@H](CCCNC(=N)N)C(=O)N[C@H](C(=O)N[C@@H](CCC(=O)O)C(=O)N[C@@H](Cc1c[nH]c2ccccc12)C(=O)N[C@@H](CC(C)C)C(=O)N[C@@H](Cc1c[nH]cn1)C(=O)N[C@@H](CCCCN)C(=O)N[C@@H](CCCCN)C(=O)N[C@@H](CC(C)C)C(=O)N[C@@H](CCC(N)=O)C(=O)N[C@@H](CC(=O)O)C(=O)N[C@H](C(=O)N[C@@H](Cc1c[nH]cn1)C(=O)N[C@@H](CC(N)=O)C(=O)N[C@@H](Cc1ccccc1)C(=O)O)C(C)C)C(C)C [[His^25] hPTH (1-34), (His^25)hPTH(1-34)] | 1.0
2 | CC[C@H](C)[C@H](NC(=O)[C@H](CCC(=O)O)NC(=O)[C@H](CO)NC(=O)[C@@H](NC(=O)[C@@H](N)CO)C(C)C)C(=O)N[C@@H](CCC(N)=O)C(=O)N[C@@H](CC(C)C)C(=O)N[C@@H](CCSC)C(=O)N[C@@H](Cc1c[nH]cn1)C(=O)N[C@@H](CC(N)=O)C(=O)N[C@@H](CC(C)C)C(=O)NCC(=O)N[C@@H](CCCCN)C(=O)N[C@@H](Cc1c[nH]cn1)C(=O)N[C@@H](CC(C)C)C(=O)N[C@@H](CC(N)=O)C(=O)N[C@@H](CO)C(=O)N[C@@H](CCSC)C(=O)N[C@@H](CCC(=O)O)C(=O)N[C@@H](CCCNC(=N)N)C(=O)N[C@H](C(=O)N[C@@H](CCC(=O)O)C(=O)N[C@@H](Cc1c[nH]c2ccccc12)C(=O)N[C@@H](CC(C)C)C(=O)N[C@@H](CCCNC(=N)N)C(=O)N[C@@H](Cc1c[nH]cn1)C(=O)N[C@@H](CCCCN)C(=O)N[C@@H](CC(C)C)C(=O)N[C@@H](CCC(N)=O)C(=O)N[C@@H](CC(=O)O)C(=O)N[C@H](C(=O)N[C@@H](Cc1c[nH]cn1)C(=O)N[C@@H](CC(N)=O)C(=O)N[C@@H](Cc1ccccc1)C(N)=O)C(C)C)C(C)C [[His^26] hPTH (1-34)NH2, (His^26)hPTH(1-34(NH2] | 0.9
3 | CC[C@H](C)[C@H](NC(=O)[C@H](CCC(=O)O)NC(=O)[C@H](CO)NC(=O)[C@@H](NC(=O)[C@@H](N)CO)C(C)C)C(=O)N[C@@H](CCC(N)=O)C(=O)N[C@@H](CC(C)C)C(=O)N[C@@H](CC(C)C)C(=O)N[C@@H](Cc1c[nH]cn1)C(=O)N[C@@H](CC(N)=O)C(=O)N[C@@H](CC(C)C)C(=O)NCC(=O)N[C@@H](CCCCN)C(=O)N[C@@H](Cc1c[nH]cn1)C(=O)N[C@@H](CC(C)C)C(=O)N[C@@H](CC(N)=O)C(=O)N[C@@H](CO)C(=O)N[C@@H](CCSC)C(=O)N[C@@H](CCC(=O)O)C(=O)N[C@@H](CCCNC(=N)N)C(=O)N[C@H](C(=O)N[C@@H](CCC(=O)O)C(=O)N[C@@H](Cc1c[nH]c2ccccc12)C(=O)N[C@@H](CC(C)C)C(=O)N[C@@H](CCCNC(=N)N)C(=O)N[C@@H](CCCCN)C(=O)N[C@@H](CCCCN)C(=O)N[C@@H](CC(C)C)C(=O)N[C@@H](CCC(N)=O)C(=O)N[C@@H](CC(=O)O)C(=O)N[C@H](C(=O)N[C@@H](Cc1c[nH]cn1)C(=O)N[C@@H](CC(N)=O)C(=O)N[C@@H](Cc1ccccc1)C(N)=O)C(C)C)C(C)C [[Leu^8] hPTH (1-34)NH2, (Leu^8)hPTH(1-34)NH2] | 0.5
4 | CC[C@H](C)[C@H](NC(=O)[C@H](CCC(=O)O)NC(=O)[C@H](CO)NC(=O)[C@@H](NC(=O)[C@@H](N)CO)C(C)C)C(=O)N[C@@H](CCC(N)=O)C(=O)N[C@@H](CC(C)C)C(=O)N[C@@H](CCSC)C(=O)N[C@@H](Cc1c[nH]cn1)C(=O)N[C@@H](CC(N)=O)C(=O)N[C@@H](CC(C)C)C(=O)NCC(=O)N[C@@H](CCCCN)C(=O)N[C@@H](Cc1c[nH]cn1)C(=O)N[C@@H](CC(C)C)C(=O)N[C@@H](CC(N)=O)C(=O)N[C@@H](CO)C(=O)N[C@@H](CC(C)C)C(=O)N[C@@H](CCC(=O)O)C(=O)N[C@@H](CCCNC(=N)N)C(=O)N[C@H](C(=O)N[C@@H](CCC(=O)O)C(=O)N[C@@H](Cc1c[nH]c2ccccc12)C(=O)N[C@@H](CC(C)C)C(=O)N[C@@H](CCCNC(=N)N)C(=O)N[C@@H](CCCCN)C(=O)N[C@@H](CCCCN)C(=O)N[C@@H](CC(C)C)C(=O)N[C@@H](CCC(N)=O)C(=O)N[C@@H](CC(=O)O)C(=O)N[C@H](C(=O)N[C@@H](Cc1c[nH]cn1)C(=O)N[C@@H](CC(N)=O)C(=O)N[C@@H](Cc1ccccc1)C(=O)O)C(C)C)C(C)C [[Leu^18] hPTH (1-34), (Leu^18)hPTH(1-34)] | 0.4
5 | CC[C@H](C)[C@H](NC(=O)[C@H](CCC(=O)O)NC(=O)[C@H](CO)NC(=O)[C@@H](NC(=O)[C@@H](N)CO)C(C)C)C(=O)N[C@@H](CCC(N)=O)C(=O)N[C@@H](CC(C)C)C(=O)N[C@@H](CCSC)C(=O)N[C@@H](Cc1c[nH]cn1)C(=O)N[C@@H](CC(N)=O)C(=O)N[C@@H](CC(C)C)C(=O)NCC(=O)N[C@@H](CCCCN)C(=O)N[C@@H](Cc1c[nH]cn1)C(=O)N[C@@H](CC(C)C)C(=O)N[C@@H](CC(N)=O)C(=O)N[C@@H](CO)C(=O)N[C@@H](CCSC)C(=O)N[C@@H](CCC(=O)O)C(=O)N[C@@H](CCCNC(=N)N)C(=O)N[C@H](C(=O)N[C@@H](CCC(=O)O)C(=O)N[C@@H](Cc1c[nH]c2ccccc12)C(=O)N[C@@H](CC(C)C)C(=O)N[C@@H](CCCNC(=N)N)C(=O)N[C@@H](CCCCN)C(=O)N[C@@H](CC(C)C)C(=O)N[C@@H](CC(C)C)C(=O)N[C@@H](CCC(N)=O)C(=O)N[C@@H](CC(=O)O)C(=O)N[C@H](C(=O)N[C@@H](Cc1c[nH]cn1)C(=O)N[C@@H](CC(N)=O)C(=O)N[C@@H](Cc1ccccc1)C(=O)O)C(C)C)C(C)C [[Leu^27] hPTH (1-34), (Leu^27)hPTH(1-34)] | 1.2
6 | CC[C@H](C)[C@H](NC(=O)[C@H](CCC(=O)O)NC(=O)[C@H](CO)NC(=O)[C@@H](NC(=O)[C@@H](N)CO)C(C)C)C(=O)N[C@@H](CCC(N)=O)C(=O)N[C@@H](CC(C)C)C(=O)N[C@@H](CCSC)C(=O)N[C@@H](Cc1c[nH]cn1)C(=O)N[C@@H](CC(N)=O)C(=O)N[C@@H](CCCCN)C(=O)NCC(=O)N[C@@H](CCCCN)C(=O)N[C@@H](Cc1c[nH]cn1)C(=O)N[C@@H](CC(C)C)C(=O)N[C@@H](CC(N)=O)C(=O)N[C@@H](CO)C(=O)N[C@@H](CCSC)C(=O)N[C@@H](CCC(=O)O)C(=O)N[C@@H](CCCNC(=N)N)C(=O)N[C@H](C(=O)N[C@@H](CCC(=O)O)C(=O)N[C@@H](Cc1c[nH]c2ccccc12)C(=O)N[C@@H](CC(C)C)C(=O)N[C@@H](CCCNC(=N)N)C(=O)N[C@@H](CCCCN)C(=O)N[C@@H](CCCCN)C(=O)N[C@@H](CC(C)C)C(=O)N[C@@H](CCC(N)=O)C(=O)N[C@@H](CC(=O)O)C(=O)N[C@H](C(=O)N[C@@H](Cc1c[nH]cn1)C(=O)N[C@@H](CC(N)=O)C(=O)N[C@@H](Cc1ccccc1)C(N)=O)C(C)C)C(C)C [[Lys^11] hPTH (1-34)NH2, (Lys^11)hPTH(1-34)NH2] | 1.1
7 | CC[C@H](C)[C@H](NC(=O)[C@H](CCC(=O)O)NC(=O)[C@H](CO)NC(=O)[C@@H](NC(=O)[C@@H](N)CO)C(C)C)C(=O)N[C@@H](CCC(N)=O)C(=O)N[C@@H](CC(C)C)C(=O)N[C@@H](CCSC)C(=O)N[C@@H](Cc1c[nH]cn1)C(=O)N[C@@H](CC(N)=O)C(=O)N[C@@H](Cc1ccccc1)C(=O)NCC(=O)N[C@@H](CCCCN)C(=O)N[C@@H](Cc1c[nH]cn1)C(=O)N[C@@H](CC(C)C)C(=O)N[C@@H](CC(N)=O)C(=O)N[C@@H](CO)C(=O)N[C@@H](CCSC)C(=O)N[C@@H](CCC(=O)O)C(=O)N[C@@H](CCCNC(=N)N)C(=O)N[C@H](C(=O)N[C@@H](CCC(=O)O)C(=O)N[C@@H](Cc1c[nH]c2ccccc12)C(=O)N[C@@H](CC(C)C)C(=O)N[C@@H](CCCNC(=N)N)C(=O)N[C@@H](CCCCN)C(=O)N[C@@H](CCCCN)C(=O)N[C@@H](CC(C)C)C(=O)N[C@@H](CCC(N)=O)C(=O)N[C@@H](CC(=O)O)C(=O)N[C@H](C(=O)N[C@@H](Cc1c[nH]cn1)C(=O)N[C@@H](CC(N)=O)C(=O)N[C@@H](Cc1ccccc1)C(=O)O)C(C)C)C(C)C [[Phe^11] hPTH (1-34), (Phe^11)hPTH(1-34)] | 1.1
